Results reported in patent US4467104A, “Esters of 2-(2-chlorocarbonyl)-2-(2,3-dihydro-2-alkylbenzofuran-7-yl)-hydrazinecar boxylic acid” (Shell Oil Company, priority 1982, dated 1984).

Experiments:
Format in all cases: in vivo
[1] = system: Pea aphids (Acyrthosiphon pisum (Harris)); experiment: Pea aphid test on sprayed broad bean plants (living aphids counted at 18 to 20 hours); details: concentration by weight in the formulation
Protocol: II. Pea aphids (Acyrthosiphon pisum (Harris)) were tested by placing about 100 aphids on broad bean plants. The plants were sprayed with dilutions of an acetone solution of the test compound in water containing an emulsifier and held in containers under laboratory conditions for 18 to 20 hours, at which time the living aphids in the containers were counted. The tests were conducted employing several different dosage rates for each test compound.
(§1) In the case of each species of insect, the concentration of the test compound by weight in the formulation required to kill fifty percent of the test insects--i.e., the LC50 dosage--was determined.

[2] = system: Houseflies (Musca domestica (Linne)); experiment: Housefly spray test (mortality after 18-20 hours); details: concentration by weight in the formulation
Protocol: I. Houseflies (Musca domestica (Linne)) were tested by placing 50 4- to 5-day old housflies into a spray cage and spraying with 0.6 ml of a solution of test compound. After spraying, the flies were anesthetized with CO2 and transferred to a recovery cage containing a milk pad for food. The cages were held for 18-20 hours after which mortality counts were made. Both dead and moribund flies were counted. The tests were conducted employing several different dosage rates for each test compound.
as §1

[3] = system: Mosquito larvae (Anopheles albimanus (Weide)); experiment: Mosquito larvae test in water (mortality after 18-22 hours); details: in distilled water
Protocol: IV. Mosquito larvae (Anopheles albimanus (Weide)) were tested by placing 10 living and active mosquito larvae in a jar containing a 0.1 ml aliquot of a 1% acetone solution of the test compound thoroughly mixed with 100 ml of distilled water. After 18-22 hours, mortality counts were taken. Both dead and moribund larvae were counted as dead. […] The tests were conducted employing several different dosage rates for each compound.
as §1

[4] = system: Adult female two-spotted mites (Tetranychus urticae (Koch)); experiment: Two-spotted spider mite test on sprayed pinto bean leaves (about 20 hours); details: concentration by weight in the formulation
Protocol: III. Adult female two-spotted mites (Tetranychus urticae (Koch) was tested by placing 50-75 mites on the bottom side of leaves of pinto bean plants. The leaves were sprayed with dilutions of an acetone solution of the test compound in water containing an emulsifier and kept under laboratory conditions for about 20 hours, at which time mortality counts were made. The tests were conducted employing several different dosage rates for each test compound.
as §1

[5] = system: Corn earworm larvae (Heliothis zea (Boddie)); experiment: Corn earworm larvae test on sprayed broad bean plant (44-46 hours); details: concentration by weight in the formulation
Protocol: V. Corn earworm larvae (Heliothis zea (Boddie)) were tested by spraying a broad bean plant with dilutions of an acetone solution of the test compound in water containing an emulsifier. Immediately after spraying, 5 larvae were transferred to the plant and held for 44-46 hours, at which time the dead and moribund larvae were counted. The tests were conducted employing several different dosage rates for each test compound.
as §1

| Structure (SMILES) | LC50 Pea Aphid [1] [% w] | LC50 Housefly [2] [% w] | LC50 Mosquito Larvae [3] [ppm] | LC50 Spider mite [4] [% w] | LC50 Corn Earworm [5] [% w] |
| --- | --- | --- | --- | --- | --- |
| COC(=O)NN(C(=O)Cl)c1cccc2c1OC(C)(C)C2 [Compound 1, 2-(2-chlorocarbonyl)-2-(2,3-dihydro-2,2-dimethylbenzofuran-7-yl)hydrazinecarboxlic acid methyl ester] | 0.00008 | > 0.5 | 0.016 | > 0.02 | 0.043 |
| CCOC(=O)NN(C(=O)Cl)c1cccc2c1OC(C)(C)C2 [Compound 2, 2-(2-chlorocarbonyl)-2-(2,3-dihydro-2,2-dimethyl-benzofuran-7-yl)hydrazinecarboxylic acid ethyl ester] | 0.0003 | > 0.5 | > 0.1 | > 0.2 | 0.1 |
| COC(=O)NN(C(=O)Cl)c1ccc(C)c2c1OC(C)(C)C2 [Compound 4, 2-(2-chlorocarbonyl)-2-(2,3-dihydro-2,2,4-trimethylbenzofuran-7-yl)hydrazinecarboxylic acid methyl ester] | 0.0002 | > 0.5 | 0.02 | > 0.2 | 0.033 |
| COC(=O)NN(C(=O)Cl)c1cccc2c1OC(C)C2 (centres unmarked) [Compound 5, 2-(2-chlorocarbony)-2-(2,3-dihydro-2-methylbenzofuran-7-yl)-hydrazinecarboxylic acid methyl ester] | 0.0005 | > 0.5 | 0.039 | > 0.2 | 0.057 |
